According to patent US5830994A, “Peptide derivatives of alpha-MSH and their application” (Institut Europeen De Biologie Cellulaire, priority 1993, dated 1998):

Tests used:
[1] = system: DNFB contact hypersensitivity; experiment: Dinitrofluorobenzene (DNFB) contact hypersensitivity test, ear thickening after topical application; format: in vivo, C57 BL/6JICO mice; details: Example 13
From the text: Study of the Anti-allergic activity of the Peptide compounds, by the Dinitrofluorobenzene (DNFB) contact Hypersensitivity test.
Female C57 BL/6JICO mice 5 weeks old are separated into ten batches of ten animals (five per cage), with free access to water and food, subjected to a photoperiod of twelve hours of light per twenty-four hours.
The animals in batches 1 to 6 receive daily and per topical application on the shaved skin of the back, the products to be studied, dissolved in propylene glycol, in a constant volume of 50 μl and for five consecutive days.
PIII--Batches 1 - 2 - 3--2.5 μg --0.5 μg--0.1 μg--mouse/day
PIV--Batches 4 - 5 - 6 - 2.5μg--0.5 μg--0.1 μg--mouse/day
The animals of the X batch serve as controls (and receive only, 50 μl of propylene glycol per topical application for five days).
(§1) On the fifth day, thirty minutes after the last application, all the mice are sensitized with 25 μl of DNFB (2.4-Dinitro-1-FluoroBenzene (FLUKA CHEMIKA PURUM at 97% batch No. 33820890) at 2% in a 4 to 1 mixture of acetone (SDS ref. 0510) and triolein (FLUKA) applied topically over the dorsal region of shaved skin.
On the sixth day, a new sensitization is carried out by application of DNFB.
On the eleventh day, the thickness of the ears of the mice is measured with the aid of a micrometer (ROCH 0 to 25 mm in 1/100 mm) in order to obtain base values, then the ears are stimulated by topical application of 20 μl of DNFB at 0.8%.
(§2) On the twelfth day, the thickness of the ears is again measured. The mean value of thickening of the ears is established for the mice in the batches which had received the products to be studied, as well as for the mice in the control batch.
The percentage of suppression where appropriate will be expressed by the following calculation: [formula]
Comparative study of the activity of Lipoyl-Peptides and of their peptide structures on DNFB contact hypersensitivity.
The method used is that described above in Example 10.
Contact hypersensitivity induced in mice by Dinitrofluorobenzene--"DNBF"
Batch I: (DL) - Lip - Glu - His - D.homoPhe - Arg - Trp - Gly - NH2
Batch II: H - Glu - His - D.homoPhe - Arg - Trp - Gly - NH2
Batch III: Control=(DL) - Lipoic Acid
Solvent: propylene Glycol previously used as control in Example 10.
Control: dose used"DL-Lipoic-Acid"=10 ng per mouse and per day.
as §1, with “were” for “are”, “05510)” for “0510)”
as §2, with “batch. The percentage of suppression where appropriate will be expressed by the following calculation: [formula]” for “batch.”

cultured embryonic cells = experiment: Effects of Peptides PI and PIV on cultured embryonic cells in vitro (melanocytes, neurons, muscular cells, fibroblasts); format: cell-based
Protocol: Effects of Peptides PI and PIV on cultured embryonic cells in vitro . . . "Melanocytes - Neurons - Muscular Cells and Fibroblasts . . . " dose used 1 μg/ml (defined by dose/response trials)
1 single treatment during the innoculation of the cells or several successive treatments (renewal of the medium every 48 hours) duration of culture: 6 to 8 days
1) Counting of the melanocytes
2) Assay of melanin by HPLC and/or by spectrophotometry
Daily observation of the cultures
Ultrastructure by transmission electron microscopy.

O=C(O)CCCCC1CCSS1 (stereo not drawn) [Lipoic acid, (DL) - Lipoic Acid, reference compound]
suppressive effect of cutaneous hypersensitivity (in words) ([1]; 10 ng per mouse and per day, in solution in Propylene Glycol): No suppressive effect

[(DL) Lip] Glu - His - D.homoPhe - Arg - Trp - Gly - NH2 [PI]
% SUPPRESSION RELATIVE TO THE CONTROL BATCH, Left Ear ([1]; 1 ng/mouse/day): -75.40% | % SUPPRESSION RELATIVE TO THE CONTROL BATCH, Right Ear ([1]; 1 ng/mouse/day): -75.58% | LEFT EAR MEAN % INCREASE ([1]; 1 ng/mouse/day): 13.86% | RIGHT EAR MEAN % INCREASE ([1]; 1 ng/mouse/day): 13.86% | % SUPPRESSION RELATIVE TO THE CONTROL BATCH, Left Ear ([1]; 10 ng/mouse/day): -77.01% | % SUPPRESSION RELATIVE TO THE CONTROL BATCH, Right Ear ([1]; 10 ng/mouse/day): -76.90% | LEFT EAR MEAN % INCREASE ([1]; 10 ng/mouse/day): 12.95% | RIGHT EAR MEAN % INCREASE ([1]; 10 ng/mouse/day): 13.01% | % SUPPRESSION RELATIVE TO THE CONTROL BATCH, Left Ear ([1]; 100 ng/mouse/day): -79.30% | % SUPPRESSION RELATIVE TO THE CONTROL BATCH, Right Ear ([1]; 100 ng/mouse/day): -79.45% | LEFT EAR MEAN % INCREASE ([1]; 100 ng/mouse/day): 11.66% | RIGHT EAR MEAN % INCREASE ([1]; 100 ng/mouse/day): 11.66% | suppression of cutaneous hypersensitivity ([1]; 100 ng/mouse/day): 79% | effect on precursor embryonic cells not yet determined in the melanoblastic pathway (in words) (cultured embryonic cells; 1 μg/ml): no effect | effect on the melanoblasts already induced (in words) (cultured embryonic cells; 1 μg/ml): stimulating effect | number of melanocytes increases by a factor (cultured embryonic cells; 1 μg/ml): ≥ 2 | toxic effect on astroglial cells (in words) (cultured embryonic cells; 1 μg/ml): No toxic effect | toxic effect on fibroblasts, mesenchyme (in words) (cultured embryonic cells; 1 μg/ml): no toxic effect | quantity of biosynthesized melanin per cell (cultured embryonic cells; 1 μg/ml, after eight days of culture): 1.4 ng/cell | toxic effect on myoblasts (in words) (cultured embryonic cells; 1 μg/ml, even at an ultrastructural level): no toxic effect | effect on melanogenesis, summary (in words) (cultured embryonic cells; qualitative and quantitative): stimulate melanogenesis | cytotoxic effect on the various cell categories (in words) (cultured embryonic cells; summary): no cytotoxic effect | stimulating effect on the other cell types: neurons, astrocytes, muscle cells, fibroblasts (in words) (cultured embryonic cells; summary): without stimulating effect
